Data published in US11058636B2, “Dispersion process of adapalene in a gel preparation” (ZHAOKE (GUANGZHOU) OPHTHALMIC DRUG COMPANY LIMITED, priority 2017, dated 2021).
Like-named read-outs stand apart in the source and are kept apart here.

Columns and labels:
[1] = tested on: glutamine invertase of keratinocytes; settings: in vitro; cited from earlier work
[2] = cited from earlier work
[3] = tested on: acne; settings: animals; cited from earlier work
[4] = target: T1, RARγ (Homo sapiens, UniProt P13631); settings: cited from earlier work
T1 sequence (P13631 1-454): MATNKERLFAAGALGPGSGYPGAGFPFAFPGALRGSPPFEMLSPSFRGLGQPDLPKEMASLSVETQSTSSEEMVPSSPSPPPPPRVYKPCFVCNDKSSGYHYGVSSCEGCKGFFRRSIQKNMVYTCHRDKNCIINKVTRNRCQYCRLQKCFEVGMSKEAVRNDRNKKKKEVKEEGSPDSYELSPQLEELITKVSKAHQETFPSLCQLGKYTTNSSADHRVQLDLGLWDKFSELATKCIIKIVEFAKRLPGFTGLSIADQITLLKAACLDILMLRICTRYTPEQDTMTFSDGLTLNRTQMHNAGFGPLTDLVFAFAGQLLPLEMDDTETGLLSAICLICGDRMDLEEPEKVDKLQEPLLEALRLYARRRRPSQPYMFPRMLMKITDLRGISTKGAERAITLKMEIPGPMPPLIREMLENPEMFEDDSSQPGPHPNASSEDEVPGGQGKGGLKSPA

[5] = Particle size of pulverized adapalene raw material, laser particle size analyzer, dry detection; assay type: physicochemical; settings: raw material after jet-mill pulverization, dry method detection (Example 3)
Excerpt: Method: Taking the appropriate amount of this product, using Malvern MS3000 laser particle size analyzer, dry detection, D50 should not greater than 10 μm, D90 should not greater than 30 um.
After pulverization the raw materials of adapalene was subjected to dry method detection and D50 was found not more than 10 um, D90 was found not more than 30 um. Adapalene was pulverized using a jet mill to achieve the target particle size.

[6] = target: T2, RARPβ (Homo sapiens, UniProt P10826); settings: cited from earlier work
T2 sequence (P10826 1-455): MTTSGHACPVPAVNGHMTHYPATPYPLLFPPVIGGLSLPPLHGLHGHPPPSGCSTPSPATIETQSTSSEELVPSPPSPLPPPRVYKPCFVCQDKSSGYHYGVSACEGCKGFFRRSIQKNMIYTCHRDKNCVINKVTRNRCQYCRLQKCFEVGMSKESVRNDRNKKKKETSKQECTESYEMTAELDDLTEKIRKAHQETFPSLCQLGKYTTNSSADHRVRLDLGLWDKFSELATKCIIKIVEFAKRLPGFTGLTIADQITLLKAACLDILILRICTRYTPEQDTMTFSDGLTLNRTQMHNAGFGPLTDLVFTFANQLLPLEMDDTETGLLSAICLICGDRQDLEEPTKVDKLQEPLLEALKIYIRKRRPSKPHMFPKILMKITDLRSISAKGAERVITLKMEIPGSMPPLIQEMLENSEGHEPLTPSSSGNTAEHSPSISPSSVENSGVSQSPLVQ

[7] = target: T3, RARα (Homo sapiens, UniProt P10276); settings: cited from earlier work
T3 sequence (P10276 1-462): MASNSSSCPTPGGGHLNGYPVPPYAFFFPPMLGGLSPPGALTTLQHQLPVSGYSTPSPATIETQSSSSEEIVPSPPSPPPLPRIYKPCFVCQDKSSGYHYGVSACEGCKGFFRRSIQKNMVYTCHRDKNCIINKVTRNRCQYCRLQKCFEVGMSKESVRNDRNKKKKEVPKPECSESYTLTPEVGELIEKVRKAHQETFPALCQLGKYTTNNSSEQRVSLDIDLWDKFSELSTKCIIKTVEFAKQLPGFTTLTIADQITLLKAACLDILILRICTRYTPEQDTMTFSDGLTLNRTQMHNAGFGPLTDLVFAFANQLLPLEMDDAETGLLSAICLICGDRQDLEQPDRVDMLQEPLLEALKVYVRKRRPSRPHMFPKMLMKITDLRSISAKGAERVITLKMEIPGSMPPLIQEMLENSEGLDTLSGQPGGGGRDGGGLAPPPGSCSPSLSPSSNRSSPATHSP

SMILES: COc1ccc(-c2ccc3cc(C(=O)O)ccc3c2)cc1C12CC3CC(CC(C3)C1)C2 [Adapalene, 6-[3-(1-adamantyl)-4-methoxyphenyl]-2-naphthoic acid]
- inhibition of glutamine invertase of keratinocytes [1]: inhibits
- solubility ([2]; in ethanol): insoluble
- solubility ([2]; in tetrahydrofuran): slightly soluble
- solubility ([2]; in water): insoluble
- effects in animal experiments [3]: acne dissolution and local anti-inflammatory effects
- binding to RARγ [4]: mainly binds
- D50 [5]: not more than 10 um
- D90 [5]: not more than 30 um
- binding to RARPβ [6]: mainly binds
- binding to RARα [7]: weak binding
